Data reported in ChEMBL document CHEMBL1201862, “PubChem BioAssay data set” (2004).
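Method: 48-hour compound exposure of cells in 96-well plates, five concentrations, linear interpolation of endpoints. The concentration for 50% growth inhibition is given as GI50.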 Active and inactive are the calls of the source. Rule as the data show it: active = GI50 up to about 1.1 µM and inactive = higher. Non-standard residues stand in square brackets, D forms with d. Residues, ends and D or L forms follow the SMILES beside them. *: point of attachment. NMeF = CN[CH](Cc1ccccc1)C(=O)O; NMeV = CN[CH](C(=O)O)C(C)C; Boc = CC(C)(C)OC(=O)*

Experiments:
Assay in all cases: NCI-60 cell line screen, 48 h
[1] = tested on: 786-0
[2] = tested on: ACHN
[3] = tested on: HCC 2998
[4] = tested on: HCT-116
[5] = tested on: KM12
[6] = tested on: LOX IMVI
[7] = tested on: Malme-3M
[8] = tested on: OVCAR-5
[9] = tested on: RXF 393
[10] = tested on: SN12C
[11] = tested on: SNB-19
[12] = tested on: U-251
[13] = tested on: UACC-62
[14] = tested on: HT-29
[15] = tested on: M14
[16] = tested on: SNB-75
[17] = tested on: OVCAR-4

Row | Structure (SMILES) | GI50 [1] | GI50 [2] | GI50 [3] | GI50 [4] | GI50 [5] | GI50 [6] | GI50 [7] | GI50 [8] | GI50 [9] | GI50 [10] | GI50 [11] | GI50 [12] | GI50 [13] | GI50 [14] | GI50 [15] | GI50 [16] | GI50 [17]
1 | O=C1C2=C(CCC2)Nc2cccc3ncn1c23 | > 100 µM (inactive) | 33.2 µM (inactive) | > 100 µM (inactive) | 34 µM (inactive) | 28.8 µM (inactive) | 24.5 µM (inactive) | > 100 µM (inactive) | 15.9 µM (inactive) | 96.4 µM (inactive) | 55.1 µM (inactive) | > 100 µM (inactive) | > 100 µM (inactive) | 40.1 µM (inactive) |  |  |  | 
2 | CCCCCCCCC/C=C1\CCC(CN(C)C)C1=O (stereo not given) | 0.281 µM (active) | 2.2 µM (inactive) | 3.5 µM (inactive) | 1.8 µM (inactive) | 1.64 µM (inactive) | 1.22 µM (inactive) | 3.03 µM (inactive) | 14.8 µM (inactive) |  | 2.08 µM (inactive) | 5.87 µM (inactive) | 1.66 µM (inactive) | 2.48 µM (inactive) | 1.7 µM (inactive) | 1.84 µM (inactive) | 2.37 µM (inactive) | 
3 | O=C1c2ccccc2C(=O)c2[nH]c(Cc3ccccc3F)nc21 | 38.5 µM (inactive) | 53.5 µM (inactive) | > 100 µM (inactive) | 41.4 µM (inactive) | 38.9 µM (inactive) |  | 40.7 µM (inactive) |  | 20.2 µM (inactive) | > 100 µM (inactive) | 38.5 µM (inactive) | 7.96 µM (inactive) | 46.1 µM (inactive) | 32.1 µM (inactive) | 84.1 µM (inactive) | 50.7 µM (inactive) | 28.1 µM (inactive)
4 | COc1ccc2ccccc2c1C1=NC(C)(C)CO1 | > 100 µM (inactive) | > 100 µM (inactive) |  | > 100 µM (inactive) | > 100 µM (inactive) |  | > 100 µM (inactive) |  | > 100 µM (inactive) | > 100 µM (inactive) | > 100 µM (inactive) | > 100 µM (inactive) | > 100 µM (inactive) | > 100 µM (inactive) | > 100 µM (inactive) | > 100 µM (inactive) | > 100 µM (inactive)
5 | Cc1ccc(-c2nc3ccccc3c(=O)n2NC2OC(CO)C(O)C(O)C2O)cc1 (stereo not given) | > 100 µM (inactive) | > 100 µM (inactive) | > 100 µM (inactive) | > 100 µM (inactive) | > 100 µM (inactive) |  | 48.2 µM (inactive) | > 100 µM (inactive) |  | > 100 µM (inactive) | > 100 µM (inactive) | > 100 µM (inactive) | > 100 µM (inactive) | > 100 µM (inactive) | > 100 µM (inactive) | > 100 µM (inactive) | > 100 µM (inactive)
6 | COC(=O)C1CCc2c(OC)ccc(OC)c2C1=O (stereo not given) | > 100 µM (inactive) | > 100 µM (inactive) | > 100 µM (inactive) | > 100 µM (inactive) | > 100 µM (inactive) | > 100 µM (inactive) | > 100 µM (inactive) | > 100 µM (inactive) |  |  | > 100 µM (inactive) | > 100 µM (inactive) | > 100 µM (inactive) | > 100 µM (inactive) | > 100 µM (inactive) |  | > 100 µM (inactive)
7 | Nc1nc(=O)[nH]c2c1cnn2COCCO |  | > 100 µM (inactive) |  | > 100 µM (inactive) | > 100 µM (inactive) | > 100 µM (inactive) | > 100 µM (inactive) | 11.3 µM (inactive) | 22.3 µM (inactive) | > 100 µM (inactive) | > 100 µM (inactive) | 22.4 µM (inactive) |  | > 100 µM (inactive) | > 100 µM (inactive) | > 100 µM (inactive) | > 100 µM (inactive)
8 | CC1=NN(C(=O)c2ccc(Cl)cc2)C(=O)/C1=C/c1ccccc1O | > 100 µM (inactive) | > 100 µM (inactive) | > 100 µM (inactive) | > 100 µM (inactive) | > 100 µM (inactive) | > 100 µM (inactive) | > 100 µM (inactive) | > 100 µM (inactive) | > 100 µM (inactive) | > 100 µM (inactive) | > 100 µM (inactive) | > 100 µM (inactive) | > 100 µM (inactive) | > 100 µM (inactive) | > 100 µM (inactive) |  | > 100 µM (inactive)
9 | CC(C)C(NC(=O)OC(C)(C)C)C(=O)N(C)C(Cc1ccccc1)C(=O)N(C)C(C(=O)N(C)C(C(=O)O)C(C)C)C(C)C (stereo not given) (Boc-V[NMeF][NMeV][NMeV]-OH; configuration not given here) | > 100 µM (inactive) | > 100 µM (inactive) | > 100 µM (inactive) | > 100 µM (inactive) | > 100 µM (inactive) | > 100 µM (inactive) | > 100 µM (inactive) |  | > 100 µM (inactive) | > 100 µM (inactive) | > 100 µM (inactive) | > 100 µM (inactive) | > 100 µM (inactive) | > 100 µM (inactive) | > 100 µM (inactive) |  | 
